Data from US8022235B2, “Compositions of phospholipid ether boronic acids and esters and methods for their synthesis and use” (Cellectar, Inc., priority 2007, dated 2011).
“Also recorded” adds a separate entry of the source.

Experiments:
[1] = system: Mammary Hyperplasia; test: Imaging and tissue distribution, tumor model; assay type: in vivo, Endogenous Mouse; conditions: Alveolar Hyperplasia
[2] = system: TRAMP prostate; test: Imaging and tissue distribution, tumor model; assay type: in vivo, Spontaneous mouse; conditions: Adenocarcinoma
[3] = system: human PC-3 prostate tumor xenografts; test: Scintigraphy, microPET and tissue distribution in PC-3 tumor model; assay type: in vivo, SCID mice
Description: The avidity of PLE and APC analogs to localize in tumors was evaluated in several animal models. The PC-3 model represents a human tumor cell line that was used to determine the target (tumor) to non-target ratio of NM404 and NM412 in head to head comparison in order to select a candidate for an initial human pharmacokinetic trial in prostate cancer patients. The MatLyLu (Dunning R3327 rat) model, a rat prostate tumor line, was used specifically to screen 9 specific analogs prior to entering them into control for dosimetry and tumor-bearing animals for determining tumor/background ratios. Finally, the Walker-256 carcinosarcoma model was used for quantitative tissue distribution purposes.
Gamma camera scintigraphy images shown in FIG. 5 directly compare the tumor uptake and body clearance of second generation analog ^125I-NM404 (1) versus its shorter chain, first generation predecessor, ^125I-NM324 (12-(m-iodophenyl)dodecyl phosphocholine) at 1, 2, and 4 days post administration in immune-compromised SCID mice bearing human PC-3 prostate tumor xenografts.
Tumor uptake, however, continued to increase up until day 5 when it reached 18% injected dose per gram of tumor. […] Tumor to background tissue ratios exceeded 4, 6.8, 23, and 9 in blood, liver, muscle, and prostate, respectively, 3 days after injection and continued to improve at 5 and 8 days. Again, although thyroid levels ranged from 26 to 54% injected dose per gram of tissue, these levels are actually quite low and represent an extremely small percentage of the injected dose when the exceedingly small mass of the organ is considered and the data are presented on a percent administered dose per organ basis.

[4] = Toxicology studies of unlabeled NM404 in rats; assay type: in vivo; conditions: for toxic effects: 14 days observation
Source text: (§1) In preparation for human clinical trials, unlabeled NM404 was subjected to independent (University of Buffalo Toxicology Research Center) acute toxicity evaluation at 1200 times the anticipated imaging mass dose in rats and rabbits. […] Due to its selective tumor uptake and retention properties in a variety of rodent tumor models and subsequent excellent safety profile in rats and rabbits, NM404 was selected to undergo initial human pharmacokinetic evaluation in non-small cell lung cancer (NSCLC) patients. Patients underwent planar gamma-camera scintigraphy after receiving an injection of ^131I-NM404 (<1 mCi).
(§2) Formal toxicology studies of NM404 in male rats and rabbits were performed at the Toxicology Research Center of the State University of New York at Buffalo under the direction of Dr. Paul Kostyniak. Drug vehicle and drug product were provided to Dr. Kostyniak by Dr. Raymond Counsell of the University of Michigan for testing as described in the appended synopses of Study 27 and Study 28. […] Human safety studies of unlabeled NM404 were initiated in normal male humans at a mass of 10 times the anticipated imaging dose and about 21 times the anticipated therapy dose. […] This toxicology study was performed under GLP conditions.
(§3) Subsequently, the inventors initiated a toxicology study of unlabeled NM404 in female rats and rabbits (Study 31 and Study 32) at the Toxicology Research Center at SUNY-Buffalo in order to expand the patient population to be studied in the NSCLC Phase 1 clinical trial. […] Human safety studies of unlabeled NM404 were initiated in normal female humans at a mass of 10 times the initially anticipated imaging dose and about 21 times the anticipated therapy dose. […] This toxicology study was performed under GLP conditions.

[5] = system: Pancreatic c-myc and kras; test: Imaging and tissue distribution, tumor model; assay type: in vivo, Spontaneous mice; conditions: Adenocarcinoma
Source text: (§4) Imaging and tissue distribution studies performed in mouse models aimed at determining the uptake characteristics in a wide variety of tumor models are summarized in Table 1, below.

[6] = system: Adrenal H-295; test: Imaging and tissue distribution, tumor model; assay type: in vivo, SCID Mouse; conditions: Adenocarcinoma
[7] = system: Retinoblastoma; test: Imaging and tissue distribution, tumor model; assay type: in vivo, Spontaneous Mouse; conditions: Blastoma
[8] = Toxicology studies of unlabeled NM404 in rabbits; assay type: in vivo; conditions: for toxic effects: 14 days observation
Source text: as §1, §2, §3

[9] = system: Melanoma; test: Imaging and tissue distribution, tumor model; assay type: in vivo, Mouse xenograft; conditions: Adenocarcinoma
Source text: as §4

[10] = target: T1, albumin fraction (Rattus norvegicus, UniProt P02770); test: PAGE analysis of plasma radioactivity distribution after iodine-125 labeled 1; assay type: in vivo, Walker-256 tumor-bearing rats; conditions: plasma 7 days after administration
T1 construct: plasma was isolated from Walker-256 tumor-bearing rats; from tissue; host or cells: plasma of Walker-256 tumor-bearing rats
T1 sequence (P02770 25-608): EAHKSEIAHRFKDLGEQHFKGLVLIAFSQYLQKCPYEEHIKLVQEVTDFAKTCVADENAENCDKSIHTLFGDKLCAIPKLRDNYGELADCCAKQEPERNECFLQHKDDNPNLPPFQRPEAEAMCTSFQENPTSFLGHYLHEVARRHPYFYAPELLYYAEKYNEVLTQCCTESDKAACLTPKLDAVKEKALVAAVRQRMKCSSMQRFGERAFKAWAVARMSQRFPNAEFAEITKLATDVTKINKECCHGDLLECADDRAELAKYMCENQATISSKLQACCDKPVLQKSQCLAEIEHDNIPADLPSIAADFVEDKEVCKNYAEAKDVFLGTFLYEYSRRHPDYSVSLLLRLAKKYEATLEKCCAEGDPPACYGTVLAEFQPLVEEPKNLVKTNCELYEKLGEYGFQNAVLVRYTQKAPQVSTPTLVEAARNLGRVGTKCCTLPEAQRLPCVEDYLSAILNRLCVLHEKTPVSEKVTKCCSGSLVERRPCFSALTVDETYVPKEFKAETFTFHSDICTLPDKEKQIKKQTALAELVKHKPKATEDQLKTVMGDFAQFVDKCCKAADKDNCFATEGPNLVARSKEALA
Source text: In order to examine the transport properties of PLE analogs, plasma was isolated from Walker-256 tumor-bearing rats 7 days after administration of iodine-125 labeled 1. The distribution of radioactivity in the plasma compartment of a rat receiving 1 (NM404) was studied.

[11] = system: spontaneous murine lung tumors; test: Bioscan imaging of spontaneous lung tumor; assay type: in vivo, ApcMin mouse; conditions: 125I-NM404, image 4 days post injection, 2 mm tumor
[12] = Human safety studies of unlabeled NM404; assay type: in vivo; conditions: normal male humans, mass of 10 times the anticipated imaging dose
Description: as §2

[13] = system: Melanoma A-375; test: Imaging and tissue distribution, tumor model; assay type: in vivo, Nude Mouse; conditions: Adenocarcinoma
[14] = system: Lung A-549 (NSCLC); test: Imaging and tissue distribution, tumor model; assay type: in vivo, SCID Mouse; conditions: Adenocarcinoma
[15] = system: Subcutaneous CT-26; test: Imaging and tissue distribution, tumor model; assay type: in vivo, Mouse xenograft; conditions: Colorectal adenocarcinoma
Source text: as §4

[16] = 1200 times the anticipated imaging mass dose

With C[N+](C)(C)CCOP(=O)([O-])OCCCCCCCCCCCCCCCCCCc1ccc(I)cc1 [NM404, 18-(p-iodophenyl)-octadecyl phosphocholine] the Uptake [1] was “No”, the Uptake [2] was “Yes” and the “tumor to background tissue ratio, blood” value ([3]; 3 days after injection) was “exceeded 4”. For the same compound, the “tumor to background tissue ratio, liver” value ([3]; 3 days after injection) was > 6.8, the “tumor to background tissue ratio, muscle” value ([3]; 3 days after injection) was > 23 and the “tumor to background tissue ratio, prostate” value ([3]; 3 days after injection) was > 9. The “elimination of radioactivity from normal tissues” value ([3]; 8 day evaluation period) was “rapid elimination of radioactivity from all normal tissues”, the Uptake ([3]; Prostate PC-3, Adenocarcinoma) was “Yes” and the tumor uptake ([3]; SCID mouse prostate and A549 lung cancer tumor models) was “exceeding 25 % of the injected dose”. The tumor uptake ([3]; radioiodinated NM404, day 5 (maximum)) was 18 % injected dose per gram of tumor, the “liver and background radioactivity” value ([3]; scintigraphy at 1, 2 and 4 days, compared with NM324) was “much improved” and the acute toxicity [4, 16] was “well tolerated and no acute toxicities were found”. For the same compound, the toxic effects ([4]; female rats, single dose 0.04 mg/kg, Study 31, GLP) was “No significant toxic effects”, the toxic effects ([4]; male rats, single dose 4 mg/kg, Study 27, GLP) was “No significant toxic effects” and the Uptake [5] was “Yes”. The Uptake [6] was “Yes”, the Uptake [7] was “Yes” and the acute toxicity [8, 16] was “well tolerated and no acute toxicities were found”. For the same compound, the toxic effects ([8]; female rabbits, single dose 0.04 mg/kg, Study 32, GLP) was “No significant toxic effects”, the toxic effects ([8]; male rabbits, single dose 4 mg/kg, Study 28, GLP) was “No significant toxic effects” and the Uptake [9] was “Yes”. The “circulating radioactivity associated with the albumin fraction” value [10] was 88%, the “uptake / retention in tumor” value [11] was “retained in spontaneous murine lung tumors; also recorded: intense uptake” and the toxicity [12] was “no toxicity attributable to the drug substance”. The Uptake [13] was “Yes”, the Uptake [14] was “Yes” and the Uptake [15] was “Yes”.
